Measurements published in paper PMC4463742, “A new family of StART domain proteins at membrane contact sites has a role in ER-PM sterol transport” (eLife, 2015).
pKd: −log10 of the molar value.

Columns and labels:
Lam4p [1] = biological target: T1, Lam4p (Saccharomyces cerevisiae, UniProt P38800); assay: biochemical
T1 construct: gene LAM4

Ysp2p [2] = biological target: T2, Ysp2p (Saccharomyces cerevisiae, UniProt Q06681); assay: tryptophan-DHE FRET with purified domain; format: binding
T2 construct: gene YSP2; StART-like domains Ysp2S1 (829-1027) and Ysp2S2 (1027-1244), His-tagged, each measured
T2 sequence (Q06681 829-1244): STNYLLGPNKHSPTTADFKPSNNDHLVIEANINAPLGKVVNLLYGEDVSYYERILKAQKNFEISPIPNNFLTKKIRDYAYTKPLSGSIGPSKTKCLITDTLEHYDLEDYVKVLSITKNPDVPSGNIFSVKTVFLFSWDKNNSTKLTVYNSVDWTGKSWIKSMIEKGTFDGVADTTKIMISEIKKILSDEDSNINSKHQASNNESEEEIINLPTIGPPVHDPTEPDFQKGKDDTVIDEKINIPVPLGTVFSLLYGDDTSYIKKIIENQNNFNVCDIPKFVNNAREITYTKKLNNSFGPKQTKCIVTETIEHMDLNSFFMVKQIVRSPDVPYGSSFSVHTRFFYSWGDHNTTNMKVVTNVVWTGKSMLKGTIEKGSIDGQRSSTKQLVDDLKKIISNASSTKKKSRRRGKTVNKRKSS

Ysp2p [3] = biological target: T2, Ysp2p; assay: competition of tryptophan-DHE FRET with purified domain; format: binding
Lam4p [4] = biological target: T1, Lam4p; assay: co-purification of […]-labelled cholesterol from HL60 cells (TLC); competition of DHE FRET; format: binding

T1 sequence (P38800 946-1155): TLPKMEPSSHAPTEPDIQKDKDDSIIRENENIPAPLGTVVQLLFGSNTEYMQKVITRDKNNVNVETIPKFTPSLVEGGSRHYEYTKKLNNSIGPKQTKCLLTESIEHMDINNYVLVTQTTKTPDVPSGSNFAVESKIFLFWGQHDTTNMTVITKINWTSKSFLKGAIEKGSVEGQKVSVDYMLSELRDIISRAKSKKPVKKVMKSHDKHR

SMILES	pKd (Lam4p [1])	tryptophan-DHE FRET with purified domain (Ysp2p [2])	competition of tryptophan-DHE FRET with purified domain (Ysp2p [3])	co-purification of 14C-labelled cholesterol from HL60 cells (TLC); competition o (Lam4p [4])
CC(C)[C@@H](C)/C=C/[C@@H](C)[C@H]1CC[C@H]2C3=CC=C4C[C@@H](O)CC[C@]4(C)C3=CC[C@]12C [DHE, dehydroergosterol]	6.30	these proteins all produced strong FRET signals with DHE		
CC(C)CCC[C@@H](C)[C@H]1CC[C@H]2[C@@H]3CC=C4C[C@@H](O)CC[C@]4(C)[C@H]3CC[C@]12C [chol, cholesterol]			All four purified StART-like domains bound both cholesterol (the predominant sterol in mammals) and ergosterol	Lam4S2 extracted cholesterol but no other lipids from labelled HL60 cells
CC(C)[C@@H](C)/C=C/[C@@H](C)[C@H]1CC[C@H]2C3=CC=C4C[C@@H](O)CC[C@]4(C)[C@H]3CC[C@]12C [erg, ergosterol]			All four purified StART-like domains bound both cholesterol (the predominant sterol in mammals) and ergosterol	
